What follows are compounds tested against T1, CCR9 (Homo sapiens, UniProt P51686) (assay: CCR9 activity in one of the chemotaxis, binding or calcium mobilization assays). Details: binding or calcium mobilization assays (MOLT-4 cells, TECK).
T1 construct: chemokine expressing cells (such as THP-1 cells for CCR2 assay or MOLT-4 cells for CCR9 assay); host or cells: MOLT-4
T1 sequence (P51686 1-369): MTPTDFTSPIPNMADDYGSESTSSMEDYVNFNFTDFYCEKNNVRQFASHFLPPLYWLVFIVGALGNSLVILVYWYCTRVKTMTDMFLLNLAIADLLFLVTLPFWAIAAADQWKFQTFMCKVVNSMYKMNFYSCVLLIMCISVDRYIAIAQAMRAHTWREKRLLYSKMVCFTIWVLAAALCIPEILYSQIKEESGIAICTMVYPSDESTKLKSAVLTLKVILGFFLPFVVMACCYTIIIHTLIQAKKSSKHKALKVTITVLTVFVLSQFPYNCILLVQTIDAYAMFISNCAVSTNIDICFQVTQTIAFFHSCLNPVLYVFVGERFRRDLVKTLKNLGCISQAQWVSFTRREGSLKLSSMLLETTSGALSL
Assay type: cell-based
Method: THP-1 cells and MOLT-4 cells were obtained from the American Type Culture Collection (Manassas, Va.) and cultured in RPMI tissue culture medium supplemented with 10% fetal calf serum (FCS) in a humidified 5% CO2 incubator at 37° C. Recombinant human chemokine proteins MCP-1 and TECK were obtained from R&D Systems (Minneapolis, Minn.). ^125I-labeled MCP-1 protein was obtained from Amersham (Piscataway, N.J.). ChemoTX® chemotaxis microchambers were purchased from Neuro Probe (Gaithersburg, Md.). CyQUANT® cell proliferation kits were purchased from Molecular Probes (Eugene, Oreg.). Calcium indicator dye Fluo-4 AM was purchased from Molecular Devices (Mountain View, Calif.).
Conventional migration assay was used to determine the efficacy of potential receptor antagonists in blocking migration mediated through chemokines (such as CCR2 or CCR9). This assay was routinely performed using the ChemoTX® microchamber system with a 5-μm pore-sized polycarbonate membrane. To begin such an assay, chemokine expressing cells (such as THP-1 cells for CCR2 assay or MOLT-4 cells for CCR9 assay) were harvested by centrifugation of cell suspension at 1000 RPM on a GS-6R Beckman centrifuge. The cell pellet was resuspended in chemotaxis buffer (HBSS with 0.1% BSA) at 10×10^6 cells/mL for CCR2 assay (5×10^6 cells/mL for CCR9 assay). Test compounds at desired concentrations were prepared from 10 mM stock solutions by serial dilutions in chemotaxis buffer. An equal volume of cells and compounds were mixed and incubated at room temperature for 15 minutes. Afterwards, 20 μL of the mixture was transferred onto the porous membrane of a migration microchamber, with 29 μL of chemokine ligand (0.1 nM chemokine MCP-1 protein for CCR2 assay or […] chemokine TECK protein for CCR9 assay) placed at the lower chamber. Following an incubation at 37° C. (90-minute for CCR2; 150-minute for CCR9), during which cells migrated […] the chemokine gradient, the assay was terminated by removing the cell drops from atop the filter. To quantify cells migrated across the membrane, 5 μL of 7× CyQUANT® solution was added to each well in the lower chamber, and the fluorescence signal measured on a Spectrafluor Plus fluorescence plate reader (TECAN, Durham, N.C.). The degree of inhibition was determined by comparing migration signals between compound-treated and untreated cells. IC50 calculation was further performed by non-linear squares regression analysis using Graphpad Prism (Graphpad Software, San Diego, Calif.).
Calcium flux assay measures an increase in intracellular calcium following ligand-induced receptor activation. In the screen of chemokine antagonists, it was used as a secondary assay carried out on a FLIPR® machine (Molecular Devices, Mountain View, Calif.). To begin an assay, chemokine expressing cells (such as THP-1 cells for CCR2 assay or MOLT-4 cells for CCR9 assay) were harvested by centrifugation of cell suspension, and resuspended to 1.5×10^6 cells/mL in HBSS (with 1% fetal calf serum). Cells were then labeled with a calcium indicator dye Fluo-4 AM for 45 minutes at 37° C. with gentle shaking. Following incubation, cells were pelletted, washed once with HBSS and resuspended in the same buffer at a density of 1.6×10^6 cells/mL. One hundred microliters of labeled cells were mixed with 10 μL of test compound at the appropriate concentrations on an assay plate. Chemokine protein (MCP-1 at a final concentration of 0.1 nM for CCR2 assay or TECK at a final concentration of 25 nM for CCR9 assay) to activate the receptor. The degree of inhibition was determined by comparing calcium signals between compound-treated and untreated cells. IC50 calculations were further performed by non-linear squares regression analysis using Graphpad Prism (Graphpad Software, San Diego, Calif.).

Row | SMILES | IC50 [nM]
1 | CCOC(=O)c1nnc(-c2ncc(Cl)cc2NS(=O)(=O)c2ccc(C(C)(C)C)cc2)n1C(C)C | < 1000
2 | Cn1c(-c2ccno2)nnc1-c1ncc(Cl)cc1NS(=O)(=O)c1ccc(C(C)(C)C)cc1 | < 1000
3 | Cn1c(-c2ncc(Cl)cc2NS(=O)(=O)c2ccc(C(C)(C)C)cc2)nnc1C1CCNCC1 | < 1000
4 | Cn1cnnc1-c1ncc(Cl)cc1NS(=O)(=O)c1ccc(C(C)(C)C)cc1 | < 1000
5 | Cc1cnc(-c2nncn2C2CCNC2)c(NS(=O)(=O)c2ccc(C(C)(C)C)cc2)c1 (stereo not shown) | < 1000
6 | CC(C)n1c(-c2ncc(Cl)cc2NS(=O)(=O)c2ccc(C(C)(C)C)cc2)nnc1C(C)(C)O | < 1000
7 | COCc1nnc(-c2ncc(Cl)cc2NS(=O)(=O)c2ccc(C(C)(C)C)cc2)n1C | < 1000
8 | Cc1cnc(-c2nncn2C2CCN(C)C2)c(NS(=O)(=O)c2ccc(C(C)(C)C)cc2)c1 (stereo not shown) | < 1000
9 | CCn1cnnc1-c1ncc(Cl)cc1NS(=O)(=O)c1ccc(C(C)(C)C)cc1 | < 1000
10 | CC(=O)Nc1nnc(-c2ncc(Cl)cc2NS(=O)(=O)c2ccc(C(C)(C)C)cc2)n1C(C)C | < 1000
11 | Cn1c(-c2ncc(Cl)cc2NS(=O)(=O)c2ccc(C(C)(C)C)cc2)nnc1C1CCCN1 (stereo not shown) | < 1000
12 | Cc1nnc(-c2ncc(Cl)cc2NS(=O)(=O)c2ccc(C(C)(C)C)cc2)n1C | < 1000
13 | Cn1c(-c2ccncc2)nnc1-c1ncc(Cl)cc1NS(=O)(=O)c1ccc(C(C)(C)C)cc1 | < 1000
14 | CC(C)n1c(N)nnc1-c1ncc(Cl)cc1NS(=O)(=O)c1ccc(C(C)(C)C)cc1 | < 1000
15 | CC(C)(C)c1ccc(S(=O)(=O)Nc2cc(Cl)cnc2-c2nncn2[C@H]2CCCNC2)cc1 | < 1000
16 | CC(C)(C)c1ccc(S(=O)(=O)Nc2cc(Cl)cnc2-c2nnc3n2CCNC3)cc1 | < 1000

Row | SMILES | IC50 [nM]
17 | CNC(=O)c1nnc(-c2ncc(Cl)cc2NS(=O)(=O)c2ccc(C(C)(C)C)cc2)n1C(C)C | < 1000
18 | CCn1c(COC)nnc1-c1ncc(Cl)cc1NS(=O)(=O)c1ccc(C(C)(C)C)cc1 | < 1000
19 | COCc1nnc(-c2ncc(Cl)cc2NS(=O)(=O)c2ccc(C(C)(C)C)cc2)n1C(C)C | < 1000
20 | CC(C)(C)c1ccc(S(=O)(=O)Nc2cc(Cl)cnc2-c2nncn2[C@H]2CCNC2)cc1 | < 1000
21 | CC(C)(C)c1ccc(S(=O)(=O)Nc2cc(Cl)cnc2-c2nncn2-c2ccccc2F)cc1 | < 1000
22 | CC(C)c1nnc(-c2ncc(Cl)cc2NS(=O)(=O)c2ccc(C(C)(C)C)cc2)n1C | < 1000
23 | COCc1nnc(-c2ncc(Cl)cc2NS(=O)(=O)c2ccc(C(C)(C)C)cc2)n1C1CCOCC1 | < 1000
24 | CCn1c(C)nnc1-c1ncc(Cl)cc1NS(=O)(=O)c1ccc(C(C)(C)C)cc1 | < 1000
25 | Cc1cnc(-c2nncn2C2CCN(C(=O)OC(C)(C)C)C2)c(NS(=O)(=O)c2ccc(C(C)(C)C)cc2)c1 (stereo not shown) | < 1000
26 | Cc1nnc(-c2ncc(Cl)cc2NS(=O)(=O)c2ccc(C(C)(C)C)cc2)n1C(C)C | < 1000
27 | CC(C)n1c(C(=O)N(C)C)nnc1-c1ncc(Cl)cc1NS(=O)(=O)c1ccc(C(C)(C)C)cc1 | < 1000
28 | Cn1c(-c2cccnc2)nnc1-c1ncc(Cl)cc1NS(=O)(=O)c1ccc(C(C)(C)C)cc1 | < 1000
29 | Cc1nnc(-c2ncc(Cl)cc2NS(=O)(=O)c2ccc(C(C)(C)C)cc2)n1C1CC1 | < 1000
30 | CC(C)n1cnnc1-c1ncc(Cl)cc1NS(=O)(=O)c1ccc(C(C)(C)C)cc1 | < 1000
31 | CC(C)(C)c1ccc(S(=O)(=O)Nc2cc(Cl)cnc2-c2nnc3n2CCOC3)cc1 | < 1000

From patent US7683176B2, “Triazolyl pyridyl benzenesulfonamides” (ChemoCentryx, Inc., priority 2006, dated 2010)
